Patent US8388966B2, “Combination treatment of pancreatic cancer” (Cancer Advances, Inc., priority 2001, dated 2013)
Structures can show the parent of a compound that is named as a salt.

Assays:
[1] = after IV administration; cited from earlier work
[2] = tested on: pancreatic tumor; assay: In vivo pancreatic tumor weight
Description: This second part of the example depicts cell proliferation of human pancreatic cell lines, PANC-1, BxPC3 and PAN-1 using a tetrazolium-based combined with anti-gastrin G17 antibodies induced by G17DT (10-500 μg/ml). The G17DT elicited antibodies are active against both serum-associated and tumor-secreted, proliferative forms of gastrin. The PAN-1 cell were administered at clinically reflective doses.
In vivo G17DT alone inhibited basal pancreatic tumor weight by 33% (p=0.016, ANOVA) compared to 38% for Gemcitabine (p=0.004, ANOVA). When combined the agents inhibited tumor weight by 55% which was significant from G17DT alone (p=0.025). Thus the immunological agent G17DT may promote the therapeutic efficacy of Gemcitabine.

[3] = in vivo; cited from earlier work
[4] = tested on: AR42J cells; conditions: 1 nM CI-988; gastrin 1 nM; after 96 hours of treatment; cited from earlier work
[5] = tested on: hormone-refractory prostate cancer; conditions: 75 mg/m^2 every 21 days, cited from earlier work
[6] = in vivo; cited from earlier work; remark: listed apart in the source
[7] = tested on: gastrin-sensitive mouse colon tumor, MC26; conditions: xenograft mice bearing MC26; 25 days in control animals; cited from earlier work

For Nc1ccn([C@@H]2O[C@H](CO)[C@@H](O)C2(F)F)c(=O)n1 [Gemcitabine, 2′, 2′, difluorodeoxycytidine], the “excreted unchanged as gemcitabine” value [1] is given as 5%, the “inhibition of basal pancreatic tumor weight” value [2] is given as 38% and the cumulative toxicity [3] is given as “no evidence of cumulative toxicity”. The overall toxicity [3] was “moderate”.

For C[C@](Cc1c[nH]c2ccccc12)(NC(=O)OC1[C@H]2C[C@@H]3C[C@@H](C[C@H]1C3)C2)C(=O)NC[C@H](NC(=O)CCC(=O)O)c1ccccc1 (stereo partly drawn) [CI-988], the “inhibition of proliferation of gastrin-stimulated AR42J cells” value [4] is given as “about 47%”.

In the case of CC(=O)O[C@@]12CO[C@@H]1C[C@H](O)[C@@]1(C)C(=O)[C@H](O)C3=C(C)[C@@H](OC(=O)[C@H](O)[C@@H](NC(=O)OC(C)(C)C)c4ccccc4)C[C@@](O)([C@@H](OC(=O)c4ccccc4)[C@H]21)C3(C)C [docetaxel], the median overall survival [5] is given as 27 months, the “patients with response (more than 40% PSA decline and more than 50% reduction of bi-dimensional cross-products)” value ([5]; including one complete response) is given as 17 of the 35 and the “median duration of responses” value ([5]; range 2 to 24 months) is given as “nine”. For the same compound, the toxicity ([5]; two deaths during the study) was “remained tolerable throughout the treatment”.

In the case of CCc1c2c(nc3ccc(OC(=O)N4CCC(N5CCCCC5)CC4)cc13)-c1cc3c(c(=O)n1C2)COC(=O)[C@]3(O)CC [Irinotecan, (S)-4,1-diethyl-3,4,12,14-tetrahydro-4-hydroxy-3,14-dioxi-[H-pyrano[3′,4′:67]-indolizino[1,2-b]quinolin-9-yl-[1,4′-bipiperidine]-1′-carboxylate, monohydrochloride, trihydrate], the G1 adverse effects [6] is given as “early and late diarrhea” and the “adverse effects in addition to the G1 manifestations” value [6] is given as “myelosuppresion and hypersensitivity reactions”.

For CCCN(CCC)C(=O)C(CCC(=O)O)NC(=O)c1ccccc1 (stereo not drawn) [proglumide], the survival [7] is listed as 39 days.
